In ChEMBL document CHEMBL1201862, “PubChem BioAssay data set” (2004):
Calls of active or inactive are those of the source.

Legend:
Major prion protein = Major prion protein (Homo sapiens, UniProt P04156); format: functional, cell-based
cells [1] = experiment: cells
Galanin receptor type 3 = Galanin receptor type 3 (Homo sapiens, UniProt O60755); experiment: Fluorescence-based cell-based primary high throughput dose response assay to identify antagonists of the Galanin Receptor 3 (GalR3).; format: functional
cells [2] = format: functional, cell-based; settings: HEK-CNG
Coagulation factor XII = biological target: T1, Coagulation factor XII (Homo sapiens, UniProt P00748); format: functional;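 note: activated factor XIIa alpha cleaving a fluorogenic AMC peptide substrate; inhibitor potency from loss of enzyme activity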
T1 sequence (P00748 whole entry): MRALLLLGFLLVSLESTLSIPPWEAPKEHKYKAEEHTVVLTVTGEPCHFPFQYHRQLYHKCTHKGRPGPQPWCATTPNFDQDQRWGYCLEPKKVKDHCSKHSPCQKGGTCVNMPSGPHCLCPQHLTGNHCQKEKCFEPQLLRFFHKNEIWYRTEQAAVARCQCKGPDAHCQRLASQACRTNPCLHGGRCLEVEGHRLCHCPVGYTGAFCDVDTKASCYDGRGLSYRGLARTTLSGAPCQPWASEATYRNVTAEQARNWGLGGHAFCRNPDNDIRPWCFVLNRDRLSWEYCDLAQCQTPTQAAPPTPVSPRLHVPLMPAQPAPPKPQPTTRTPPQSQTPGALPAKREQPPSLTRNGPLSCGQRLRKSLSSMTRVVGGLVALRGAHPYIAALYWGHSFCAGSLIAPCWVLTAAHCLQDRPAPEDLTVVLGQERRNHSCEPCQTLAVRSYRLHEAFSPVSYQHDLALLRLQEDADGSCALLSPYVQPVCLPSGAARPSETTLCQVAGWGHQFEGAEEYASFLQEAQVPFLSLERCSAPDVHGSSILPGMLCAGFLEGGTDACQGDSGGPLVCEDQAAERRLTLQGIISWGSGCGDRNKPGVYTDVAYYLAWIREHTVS

Mu-type opioid receptor = Mu-type opioid receptor (Homo sapiens, UniProt P35372); format: functional, cell-based;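 note: U2OS cells with beta-arrestin recruitment to OPRM1 by beta-gal complementation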
[3] = biological target: 5-hydroxytryptamine receptor 2A (Mus musculus, UniProt P35363); format: functional, cell-based;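 note: CHO-K1 cells with tagged receptor and beta-arrestin; agonist potency measured as compound-induced activation of the receptor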
cells [4] = experiment: cells; remark: listed apart in the source
HEK293 [5] = experiment: NOD2 signaling inhibitors in MDP-stimulated cells, cell-based, uHTS, luminescence (AID 2001); format: functional; settings: Homo sapiens
HEK293 [6] = experiment: cells; format: functional, cell-based; settings: Homo sapiens
HEK293 [7] = experiment: NOD1 signaling inhibitors, primary screen, cell-based, luminescence, uHTS (AID 1578); format: functional; settings: Homo sapiens
[8] = biological target: T2, Beta-2 adrenergic receptor (Homo sapiens, UniProt P07550); experiment: beta2AR agonists driving receptor internalization, dose response, cell-based, FAP fluorogen, flow cytometry, cherry pick 1 (AID 588763); format: functional
HEK293 [9] = experiment: cells; format: functional, cell-based; settings: Homo sapiens; remark: listed apart in the source
[10] = biological target: T2, Beta-2 adrenergic receptor; experiment: Dose response for HTS for Beta-2AR agonists via FAP method from Powderset3.; format: functional
[11] = Counterscreen for activators of the function of SWI/SNF related, matrix associated, actin dependent regulator of chromatin, subfamily a, member 2 (SMARCA2, BRM): Luminescence-based cell-based high throughput dose response assay to identify non-selective compounds using the VP16 reporter assay.; format: functional
Vero [12] = experiment: cells; format: functional; settings: Chlorocebus sabaeus
[13] = C. albicans growth with fluconazole, confirmation, fluorescence, retest (AID 2467); format: functional, cell-based
[14] = biological target: SWI/SNF-related matrix-associated actin-dependent regulator of chromatin subfamily A member 2 (Homo sapiens, UniProt P51531); experiment: Luminescence-based cell-based high throughput dose response assay to identify activators of the function of SWI/SNF related, matrix associated, actin dependent regulator of chromatin, subfamily a, member 2 (SMARCA2, BRM).; format: functional
[15] = NIH-3T3 fibroblast cytotoxicity, dose response, cytotoxicity control, cell-based, fluorescence, Alamar Blue, secondary assay (AID 2327); format: functional;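 note: NIH-3T3 mouse fibroblasts cultured with fluconazole at 8 µg/mL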
Vero [16] = experiment: cells; format: functional, cell-based; settings: Chlorocebus sabaeus
[17] = biological target: Nuclear receptor subfamily 0 group B member 1 (Homo sapiens, UniProt P51843); format: functional, cell-based;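 note: HEK293T cells transfected with SF-1 and DAX-1 plus StAR promoter luciferase reporter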
cells [18] = format: functional, cell-based
[19] = biological target: T3, Sentrin-specific protease 1 (Homo sapiens, UniProt Q9P0U3); experiment: Dose response confirmation of small molecule inhibitors of the catalytic domain of the SUMO protease, SENP1 in a FRET assay.; format: functional; settings: read-out: IC50_Mean
[20] = biological target: T3, Sentrin-specific protease 1; experiment: potency of human SENP1 inhibitors, dose response, biochemical, kinetic FRET (AID 651697); format: functional; settings: read-out: IC50_Mean
[21] = biological target: T4, Methionyl-tRNA synthetase, putative (Trypanosoma brucei brucei, UniProt Q38C91); format: functional, Trypanosoma brucei brucei strain 927/4 GUTat10.1
[22] = biological target: T4, Methionyl-tRNA synthetase, putative; format: functional, Trypanosoma brucei brucei strain 927/4 GUTat10.1; remark: listed apart in the source
[23] = Counterscreen for inhibitors of Trypanosoma brucei methionyl tRNA synthetase (MetRS): Luminescence-based cell-based high throughput dose response assay to identify compounds that are cytotoxic to Jurkat human T lymphocyte cells.; format: functional
Cryptococcus neoformans = experiment: PubChem AID 686997; format: functional, organism-based
[24] = inhibitors of clade B AD8 Env fusion, dose response, cell-based, cherry-pick (AID 652062); format: functional;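 note: luciferase signal from cell-cell fusion driven by HIV-1 clade B AD8 Env; potency is for inhibitors of fusion seen as a drop in luminescence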
[25] = inhibitors of HIV Env-driven cell fusion, dose response, cherry-pick (AID 652057); format: functional, cell-based
[26] = CEM21 lymphoblast cell cytotoxicity, dose response, cytotoxicity control for viral fusion inhibitor project, CellTiter-Glo luminescence, cherry-picked (AID 652042); format: functional, cell-based;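 note: potency for signal decrease meaning cytotoxicity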

## CCc1ccc(-c2nc3ccc(Br)cc3c(C(=O)O)c2C)s1
Major prion protein
  IC50: 1.24 µM (active)
Cells [1]
  IC50: > 138 µM (inactive)

## Cc1cc(OCC(=O)Nc2ccncc2)c(C)cc1Br
Galanin receptor type 3
  IC50: 1.4 µM (active)
Cells [2]
  EC50: > 29.9 µM (inactive)

## Cc1[nH]c2ccccc2c1NC(=O)CN1CCN(C(=O)c2ccco2)CC1
Coagulation factor XII
  IC50: > 50 µM (inactive)
Mu-type opioid receptor
  EC50: 92.4 µM (inactive)
[3]
  EC50: 4.1 µM (active)

## COCCN1C=C(C(=O)OC)C(c2ccc(Cl)cc2)C(C(=O)OC)=C1
Cells [4]
  AC50: 10.9 µM (active)

## Cn1c(N2CCN(c3ccccn3)CC2)nc2c1c(=O)n(Cc1ccc(Cl)cc1)c(=O)n2C
HEK293 [5]
  IC50: 6 µM (active)
HEK293 [6]
  IC50: 10.9 µM (active)
HEK293 [7]
  EC50: 6.92 µM (active)
[8]
  EC50: 0.081 µM (active)
HEK293 [9]
  IC50: 7.19 µM (active)
[10]
  EC50: 0.0074 µM (active)

## O=C(Nc1ccccc1Cl)c1ccc([N+](=O)[O-])o1
[11]
  EC50: > 91.2 µM (inactive)
Vero [12]
  CC50: 12.2 µM (active)
[13]
  EC50: 1.64 µM (active)
[14]
  EC50: > 91.2 µM (inactive)
[15]
  EC50: > 160 µM (inactive)
Vero [16]
  IC50: > 25 µM (active)

## O=[N+]([O-])c1ccc(COc2ccc(CN3CCOCC3)cc2)cc1
[17]
  IC50: > 67.5 µM (inactive)
Cells [18]
  IC50: > 67.5 µM (inactive)

## CC/N=c1\scc(-c2cccs2)n1/N=C/c1cc(OC)ccc1O
[19]
  IC50: 15.8 µM (active)
[20]
  IC50: 18.6 µM (active)

## Cc1ccccc1-c1c[nH]c(C(O)c2cc(Cl)cc(Cl)c2)n1 (stereo unspecified)
[21]
  IC50: 8.47 µM (active)
[22]
  IC50: 5.56 µM (active)
[23]
  IC50: 83.3 µM (inactive)

## COC(=O)C1=C(C)N(Cc2ccc(Br)cc2)C(=S)NC1c1cccc(Cl)c1 (stereo unspecified)
Cryptococcus neoformans
  AC50: 26.4 µM (active)

## C[C@H](CO)N1C[C@H](C)[C@H](CN(C)S(=O)(=O)c2ccccc2)Oc2cc(Br)ccc2S1(=O)=O
[24]
  AC50: 38.6 µM (active)
[25]
  AC50: 4.68 µM (active)
[26]
  AC50: 53.4 µM (active)
